Data reported in US8642774B2, “Compounds” (Boehringer Ingelheim International GmbH, priority 2011, dated 2014).

Molecular target: T1, human recombinant mGluR5 (Homo sapiens, UniProt P41594)
T1 construct: expressed in transfected cells; host or cells: HEK 293 cell line, cultured with tetracycline, hygromycin and geneticin; tetracycline is withdrawn 3-7 days before the assay
Assay: positive modulation of mGluR5, calcium based FLIPR assay
Assay type: cell-based
Details: EC50 of the modulation; HEK 293 cell line expressing human recombinant mGluR5; peak height of Ca fluorescence signal after glutamate at approx. 5% basal stimulation; read-out: EC50
Outline: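 HEK 293 cells expressing human recombinant mGluR5, tetracycline-free before assay, loaded with Calcium-4 dye in Ringer solution pH 7.4. Compounds (1% DMSO final) added for 5 min, then glutamate at about 5% of maximal effect; FLIPR peak Ca signal scaled between 1% DMSO (100%) and 10 μM CDPPB (200%) controls, EC50 by nonlinear regression.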

T1 sequence (P41594 21-1212): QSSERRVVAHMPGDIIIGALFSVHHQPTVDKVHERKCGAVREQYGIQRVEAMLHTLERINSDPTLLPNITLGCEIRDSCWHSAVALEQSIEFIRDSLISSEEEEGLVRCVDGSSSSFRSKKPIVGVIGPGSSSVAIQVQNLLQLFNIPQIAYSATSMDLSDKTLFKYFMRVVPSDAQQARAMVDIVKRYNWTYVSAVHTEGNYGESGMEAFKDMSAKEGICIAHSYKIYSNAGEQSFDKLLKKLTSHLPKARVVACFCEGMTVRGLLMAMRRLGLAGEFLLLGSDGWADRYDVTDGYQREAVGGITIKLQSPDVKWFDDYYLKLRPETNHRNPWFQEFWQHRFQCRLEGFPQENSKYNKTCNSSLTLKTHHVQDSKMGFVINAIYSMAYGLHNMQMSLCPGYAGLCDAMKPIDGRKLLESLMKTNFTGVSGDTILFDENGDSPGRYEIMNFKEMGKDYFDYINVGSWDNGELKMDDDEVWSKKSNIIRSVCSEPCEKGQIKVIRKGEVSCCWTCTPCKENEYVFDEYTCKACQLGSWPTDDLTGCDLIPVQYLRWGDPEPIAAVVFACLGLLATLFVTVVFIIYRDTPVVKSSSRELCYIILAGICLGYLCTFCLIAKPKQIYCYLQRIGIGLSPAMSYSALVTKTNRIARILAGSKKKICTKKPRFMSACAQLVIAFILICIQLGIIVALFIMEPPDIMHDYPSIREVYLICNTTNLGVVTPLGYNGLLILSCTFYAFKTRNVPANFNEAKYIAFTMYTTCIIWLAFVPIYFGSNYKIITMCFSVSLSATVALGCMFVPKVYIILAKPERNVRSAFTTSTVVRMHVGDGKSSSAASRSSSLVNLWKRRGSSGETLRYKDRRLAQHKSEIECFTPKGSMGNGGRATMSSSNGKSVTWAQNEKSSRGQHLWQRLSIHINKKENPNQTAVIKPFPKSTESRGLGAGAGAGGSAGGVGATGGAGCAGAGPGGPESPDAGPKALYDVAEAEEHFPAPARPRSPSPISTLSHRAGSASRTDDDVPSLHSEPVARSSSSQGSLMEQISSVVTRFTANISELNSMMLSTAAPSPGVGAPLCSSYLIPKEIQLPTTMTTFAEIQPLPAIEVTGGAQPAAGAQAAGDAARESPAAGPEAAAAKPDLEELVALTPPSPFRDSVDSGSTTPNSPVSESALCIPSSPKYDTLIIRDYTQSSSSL

SMILES | EC50
O=C(Cn1nc(-c2ccc(F)cc2)nc1-c1ccc(F)cc1)N1CCN(C2=NCCCS2)CC1 [Example 7.05.01., 2-(3,5-bis-(4-Fluoro-phenyl)-(1,2,4)triazol-1-yl]-1-[4-(5,6-dihydro-4H-(1,3)thiazin-2-yl)-piperazin-1-yl]-ethanone] | 1.71 µM
O=C(Cn1nc(-c2ccc(F)cc2)nc1-c1ccc(F)cc1)N1CCc2ncsc2CC1 [Example 7.06.01., 2-(3,5-bis-(4-Fluoro-phenyl)-(1,2,4)triazol-1-yl]-1-(4,5,7,8-tetrahydro-thiazolo[4,5-d]azepin-6-yl)-ethanone] | 1.13 µM
